According to patent publication US10736932B2, “Small molecule Ras inhibitors” (Ohio State Innovation Foundation, priority 2014, dated 2020):
Square brackets hold non-standard residues; d marks the D form. Peptide text beside a SMILES is read from it. * marks the point of attachment. Phe(3,4-F2) = N[C@@H](Cc1ccc(F)c(F)c1)C(=O)O; Phe(4-Cl) = N[C@@H](Cc1ccc(Cl)cc1)C(=O)O; Phe(4-F) = N[C@@H](Cc1ccc(F)cc1)C(=O)O; d2Nal = N[C@H](Cc1ccc2ccccc2c1)C(=O)O; Tle = CC(C)(C)[C@H](N)C(=O)O; X5 = O=C(c1cc(F)cc(Br)c1)*; dNle = CCCC[C@@H](N)C(=O)O; X3 = N#Cc1ccc(C(=O)*)cc1; Dap = NC[C@H](N)C(=O)O

Target: T1, K-Ras / Raf RBD interaction (Homo sapiens, UniProt P01116, G12V)
T1 construct: The G12V mutant K-Ras (amino acids 1-185) was recombinantly fused; GST (N, cleaved yes); made in house; host or cells: Escherichia coli BL21
Experiment: HTRF assay, inhibition of Ras-Raf RBD interaction;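 also: HTRF signal read after overnight incubation of the assay plate at 4 °C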
Format: binding
Conditions: for increase in Ras binding affinity upon residue substitution: relative to parent 9A5/9A6

| SMILES | IC50 | increase in Ras binding affinity upon residue substitution |
| --- | --- | --- |
| CC(C)C[C@H]1NC(=O)[C@H](Cc2ccc(F)cc2)NC(=O)[C@H](CCCNC(=N)N)NC(=O)[C@@H](Cc2ccc3ccccc3c2)NC(=O)[C@H](CCCNC(=N)N)NC(=O)[C@H](CCCNC(=N)N)NC(=O)[C@@H](CCCNC(=N)N)NC(=O)[C@@H](C)NC(=O)[C@H]([C@@H](C)O)NC(=O)[C@H](Cc2c[nH]c3ccccc23)NC(=O)[C@H](CCC(N)=O)NC1=O [Cyclorasin 9A10, (Trp-Thr-ala-arg-Arg-Arg-nal-Arg-Fpa-leu-Gln)] (cyclo(WT[dA][dR]RR[d2Nal]R[Phe(4-F)][dL]Q)) | 240 ± 130 nM | – |
| CC(C)[C@H]1NC(=O)[C@H](Cc2ccc(F)cc2)NC(=O)[C@H](CCCNC(=N)N)NC(=O)[C@@H](Cc2ccc3ccccc3c2)NC(=O)[C@H](CCCNC(=N)N)NC(=O)[C@H](CCCNC(=N)N)NC(=O)[C@@H](CCCNC(=N)N)NC(=O)[C@@H](C)NC(=O)[C@H]([C@@H](C)O)NC(=O)[C@H](Cc2c[nH]c3ccccc23)NC(=O)[C@H](CCC(N)=O)NC1=O [Cyclorasin 9A11, (Trp-Thr-ala-arg-Arg-Arg-nal-Arg-Fpa-val-Gln)] (cyclo(WT[dA][dR]RR[d2Nal]R[Phe(4-F)][dV]Q)) | 310 ± 80 nM | – |
| CCCC[C@H]1NC(=O)[C@H](Cc2ccc(F)cc2)NC(=O)[C@H](CCCNC(=N)N)NC(=O)[C@@H](Cc2ccc3ccccc3c2)NC(=O)[C@H](CCCNC(=N)N)NC(=O)[C@H](CCCNC(=N)N)NC(=O)[C@@H](CCCNC(=N)N)NC(=O)[C@@H](C(C)C)NC(=O)[C@H]([C@@H](C)O)NC(=O)[C@H](Cc2c[nH]c3ccccc23)NC(=O)[C@H](CCC(N)=O)NC1=O [Cyclorasin 9A14, (Trp-Thr-val-arg-Arg-Arg-nal-Arg-Fpa-nle-Gln)] (cyclo(WT[dV][dR]RR[d2Nal]R[Phe(4-F)][dNle]Q)) | 130 ± 70 nM | ~2 fold |
| CCCC[C@H]1NC(=O)[C@H](Cc2ccc(F)cc2)NC(=O)[C@H](CCCNC(=N)N)NC(=O)[C@@H](Cc2ccc3ccccc3c2)NC(=O)[C@H](CCCNC(=N)N)NC(=O)[C@H](CCCNC(=N)N)NC(=O)[C@@H](CCCNC(=N)N)NC(=O)[C@@H](CC(C)C)NC(=O)[C@H]([C@@H](C)O)NC(=O)[C@H](Cc2c[nH]c3ccccc23)NC(=O)[C@H](CCC(N)=O)NC1=O [Cyclorasin 9A15, (Trp-Thr-leu-arg-Arg-Arg-nal-Arg-Fpa-nle-Gln)] (cyclo(WT[dL][dR]RR[d2Nal]R[Phe(4-F)][dNle]Q)) | 110 ± 40 nM | – |
| CCCC[C@H]1NC(=O)[C@H](Cc2ccc(F)cc2)NC(=O)[C@H](CCCNC(=N)N)NC(=O)[C@@H](Cc2ccc3ccccc3c2)NC(=O)[C@H](CCCNC(=N)N)NC(=O)[C@H](CCCNC(=N)N)NC(=O)[C@@H](CCCNC(=N)N)NC(=O)[C@@H](C)NC(=O)[C@H](C(C)(C)C)NC(=O)[C@H](Cc2c[nH]c3ccccc23)NC(=O)[C@H](CCC(N)=O)NC1=O [Cyclorasin 9A16, (Trp-Tle-ala-arg-Arg-Arg-nal-Arg-Fpa-nle-Gln)] (cyclo(W[Tle][dA][dR]RR[d2Nal]R[Phe(4-F)][dNle]Q)) | 110 ± 10 nM | ~2 fold |
| CCCC[C@H]1NC(=O)[C@H](Cc2ccc(F)cc2)NC(=O)[C@H](CCCNC(=N)N)NC(=O)[C@@H](Cc2ccc3ccccc3c2)NC(=O)[C@H](CCCNC(=N)N)NC(=O)[C@H](CCCNC(=N)N)NC(=O)[C@@H](CCCNC(=N)N)NC(=O)[C@@H](C)NC(=O)[C@H](CO)NC(=O)[C@H](Cc2c[nH]c3ccccc23)NC(=O)[C@H](CCC(N)=O)NC1=O [Cyclorasin 9A17, (Trp-Ser-ala-arg-Arg-Arg-nal-Arg-Fpa-nle-Gln)] (cyclo(WS[dA][dR]RR[d2Nal]R[Phe(4-F)][dNle]Q)) | 720 ± 310 nM | – |
| CCCC[C@H]1NC(=O)[C@H](Cc2ccc(F)cc2)NC(=O)[C@H](CCCNC(=N)N)NC(=O)[C@@H](Cc2ccc3ccccc3c2)NC(=O)[C@H](CCCNC(=N)N)NC(=O)[C@H](CCCNC(=N)N)NC(=O)[C@@H](CCCNC(=N)N)NC(=O)[C@@H](C)NC(=O)[C@H](C(C)C)NC(=O)[C@H](Cc2c[nH]c3ccccc23)NC(=O)[C@H](CCC(N)=O)NC1=O [Cyclorasin 9A18, (Trp-Val-ala-arg-Arg-Arg-nal-Arg-Fpa-nle-Gln)] (cyclo(WV[dA][dR]RR[d2Nal]R[Phe(4-F)][dNle]Q)) | 230 ± 110 nM | – |
| CCCC[C@H]1NC(=O)[C@H](Cc2ccc(F)cc2)NC(=O)[C@H](CCCNC(=N)N)NC(=O)[C@@H](Cc2ccc3ccccc3c2)NC(=O)[C@H](CCCNC(=N)N)NC(=O)[C@H](CCCNC(=N)N)NC(=O)[C@H](CCCNC(=N)N)NC(=O)[C@@H](CC(C)C)NC(=O)[C@H](C(C)(C)C)NC(=O)[C@H](Cc2c[nH]c3ccccc23)NC(=O)[C@H](CCC(N)=O)NC1=O [Cyclorasin 9A41, (Trp-Tle-leu-Arg-Arg-Arg-nal-Arg-Fpa-nle-Gln)] (cyclo(W[Tle][dL]RRR[d2Nal]R[Phe(4-F)][dNle]Q)) | 2000 ± 900 nM | – |
| CCCC[C@H]1NC(=O)[C@H](Cc2ccc(Cl)cc2)NC(=O)[C@H](CCCNC(=N)N)NC(=O)[C@@H](Cc2ccc3ccccc3c2)NC(=O)[C@H](CCCNC(=N)N)NC(=O)[C@H](CCCNC(=N)N)NC(=O)[C@H](CCCNC(=N)N)NC(=O)[C@@H](C)NC(=O)[C@H]([C@@H](C)O)NC(=O)[C@H](Cc2c[nH]c3ccccc23)NC(=O)[C@H](CCC(N)=O)NC1=O [Cyclorasin 9A42, (Trp-Thr-ala-Arg-Arg-Arg-nal-Arg-Phe(4-chloro)-nle-Gln)] (cyclo(WT[dA]RRR[d2Nal]R[Phe(4-Cl)][dNle]Q)) | 130 ± 20 nM | – |
| CCCC[C@H]1NC(=O)[C@H](Cc2ccc(F)c(F)c2)NC(=O)[C@H](CCCNC(=N)N)NC(=O)[C@@H](Cc2ccc3ccccc3c2)NC(=O)[C@H](CCCNC(=N)N)NC(=O)[C@H](CCCNC(=N)N)NC(=O)[C@H](CCCNC(=N)N)NC(=O)[C@@H](C)NC(=O)[C@H]([C@@H](C)O)NC(=O)[C@H](Cc2c[nH]c3ccccc23)NC(=O)[C@H](CCC(N)=O)NC1=O [Cyclorasin 9A43, (Trp-Thr-ala-Arg-Arg-Arg-nal-Arg-Phe(3,4-difluoro)-nle-Gln)] (cyclo(WT[dA]RRR[d2Nal]R[Phe(3,4-F2)][dNle]Q)) | 64 nM | 2 fold |
| CCCC[C@H]1NC(=O)[C@H](CNC(=O)c2cc(F)cc(Br)c2)NC(=O)[C@H](CCCNC(=N)N)NC(=O)[C@@H](Cc2ccc3ccccc3c2)NC(=O)[C@H](CCCNC(=N)N)NC(=O)[C@H](CCCNC(=N)N)NC(=O)[C@H](CCCNC(=N)N)NC(=O)[C@@H](C)NC(=O)[C@H]([C@@H](C)O)NC(=O)[C@H](Cc2c[nH]c3ccccc23)NC(=O)[C@H](CCC(N)=O)NC1=O [Cyclorasin 9A44a, (Trp-Thr-ala-Arg-Arg-Arg-nal-Arg-Dap(3-bromo-5-fluorobenzoyl)-nle-Gln)] (cyclo(WT[dA]RRR[d2Nal]R[Dap](X5)[dNle]Q)) | 83 ± 8 nM | – |
| CCCC[C@H]1NC(=O)[C@H](CNC(=O)c2ccc(C#N)cc2)NC(=O)[C@H](CCCNC(=N)N)NC(=O)[C@@H](Cc2ccc3ccccc3c2)NC(=O)[C@H](CCCNC(=N)N)NC(=O)[C@H](CCCNC(=N)N)NC(=O)[C@H](CCCNC(=N)N)NC(=O)[C@@H](C)NC(=O)[C@H](C(C)(C)C)NC(=O)[C@H](Cc2c[nH]c3ccccc23)NC(=O)[C@H](CCC(N)=O)NC1=O [Cyclorasin 9A44c, (Trp-Tle-ala-Arg-Arg-Arg-nal-Arg-Dap(4-cyanobenzoyl)-nle-Gln)] (cyclo(W[Tle][dA]RRR[d2Nal]R[Dap](X3)[dNle]Q)) | 150 ± 50 nM | – |
